The results in this text go back to patent US20140154717A1, “METHOD FOR DETECTING CANCER CELL USING FLUORESCENTLY LABELED L-GLUCOSE DERIVATIVE, AND CANCER CELL-IMAGING AGENT COMPRISING FLUORESCENTLY LABELED L-GLUCOSE DERIVATIVE” (priority 2011, published 2014).

Data set [1] is described as follows: Maximum excitation and fluorescence wavelength. The class given is physicochemical.
For data set [2], the system named is mouse insulinoma cells (MIN6). The data set can be described thus: Uptake into MIN6 cells with or without inhibitors, fluorescence microplate reader (Flex Station). The class given is cell-based. As to conditions: 200 μM, 5 minutes. The method, then:
A difference in the uptake of 2-NBDLG (200 μM) and 2-NBDG (200 μM) into mouse insulinoma cells (MIN6) each applied for 5 minutes was analyzed quantitatively by a fluorescence microplate reader Flex Station (manufactured by Molecular Devices Corporation) in the condition whether or not various inhibitors are present. The well used for measurement was a 96-well clear bottomed well plate μ CLEAR-PLATE (Greiner bio-one, BLACK, 96 well, #655090) having longitudinally […] to 12 twelve columns, and MIN6 cell suspension prepared at a proportion of 6×10^5 cells/mL was seeded uniformly into wells from line B to line G at the third column and the fifth column each in an amount of 15 μL. For medium exchange, the half quantity was exchanged every two days in 0 to 4 DIV (days in vitro), and from 5 DIV or later, exchanged every day, and on days 10 to 13 (10 to 13 DIV), the cells were subjected to an experiment. Line A and line H were used as a control for checking correct washout, without seeding cells. In the fourth column, cells were not present, and wells in this column were used as a blank containing only Krebs Ringer buffer solution (KRB, containing 0.1 mM gap junction inhibitor carbenoxolone and 5.6 mM glucose). Evaluation was done in a way that 2-NBDLG or 2-NBDG was charged in each tube of a 8-strip PCR tube, and sucked using a 8-channel pipette and dropped simultaneously into wells. In this way, administration to wells for 2-NBDLG and to wells for 2-NBDG can be done simultaneously, making reliable evaluation possible. As described above, cells are present in 12 wells in the third and the fifth two columns, and these were divide into 4 groups each having 3 wells according to a difference either 2-NBDLG or 2-NBDG and whether an inhibitor is present or absent. Specifically, when checking the effect by the presence or absence of a GLUT inhibitor Cytochalasin B (10 μM) on the uptake of 2-NBDLG (200 μM) and 2-NBDG (200 μM), first, in wells, which are planned to be measured in the presence of Cytochalasin B, Cytochalasin B was added 5 minutes prior to the administration of the fluorescently labeled glucose derivative. Before administration of a fluorescently labeled glucose derivative, the autofluorescence was measured in each well. The measurement was done with Flex Station in Well Scan Mode and in the Bottom Read position at Ex 470 nm, Em 540 nm, Cut off 495 nm, Averaging 3, and Photomultiplier sensitivity: high. In Well Scan Mode of the fluorescence microplate reader Flex Station, one well was divided into nine observation areas and these are measured independently. The presence of approximately 5000 cells in each of 9-divided areas was separately confirmed by Z section measurement of a realtime deconvolution microscope. 2-NBDG and 2-NBDLG were administered with or without Cytochalasin B (37° C., 5 minutes), and after cessation of administration, an operation of adding 250 μL of a KRB solution containing no fluorescently labeled glucose into 50 μL of a solution in a well was repeated 7 times while measuring with a stopwatch, thereby performing washout until the fluorescence intensities of wells in line A and line H set as a control group became equal to the fluorescence intensity of the blank well containing no cell. This process required 7 minutes, and even if cells having broken plasma membrane condition are brought into contact with 2-NBDG and 2-NBDLG, and even if these compounds are once taken up into the cell, these compounds are already eliminated out of the cell and are washed away in measurement, therefore, contribution to an increase in the fluorescence intensity in the whole observation area was judged to be in an ignorable level. This was supported by a separate pharmacological inhibition experiment in which the increase in the fluorescence intensity nearly disappears in the presence of an inhibitor. The above-described method was carried out similarly in the case of other inhibitors. […]

Data set [3] deals with tumor cells (C6 glioma). The data set can be described thus: In vivo fluorescent imaging using C6 tumor model mice (rat glioma C6 cells transplanted subcutaneously in nude mice). Details: species or system mouse. The method, then:
C6 cells were prepared according to an ordinary method so that the cell number was 2×10^7 cells/mL.
C6 cells were seeded on a 10 cm petri dish, allowed to stand still in a CO2 incubator, and cultured at 37° C. The culture medium was exchanged once every two days.
1 g/L glucose-containing Dulbecco's modified Eagle's Medium (DMEM) (Nacalai No. 08456-65), to which Fetal Bovine Serum (Equitech-Bio SFBM) was added so that the final concentration was 10% and penicillin-streptomycin (Nacalai No. 26253-84) was added so that the final concentration was 1%, was used.
5 to 6-week old athymic nude mice (BALB/cAJcl-nu/nu) were transplanted with 50 μL of a cell suspension adjusted to 2×10^7 cells/mL subcutaneously around the root of right hind paw, under isoflurane anesthesia. The transplanted tumor cells were observed until growing to about 200 to 300 mm^3, and used in vivo fluorescent imaging.
C6 tumor model mice were allowed to stand still in an in vivo fluorescence imaging apparatus IVIS (registered trademark) Kinetics (Caliper Life sciences) under isoflurane anesthesia and autofluorescence of the mouse skin was measured, and subsequently, 400 nmol (100 μL) of 2-NBDLG or 2-NBDG dissolved in physiological saline was administered from the tail vein over a period of 30 seconds, and measurement of the fluorescence imaging was started again from one minute after starting administration. The in vivo fluorescence imaging was measured at an excitation wavelength of 465 nm using a GFP filter (transmittable fluorescence wavelength: 515-575 nm). The measurement was conducted for 45 minutes, and images were taken every one minute during the initial 20 minute and every 5 minutes from 20 to 45 minutes, obtaining 25 images in total. The accumulated values (fluorescence value) of 2-NBDLG and 2-NBDG in the interested area were obtained by subtracting the autofluorescence images from the 25 images taken after administration of 2-NBDLG or 2-NBDG.
A vial of 0.5 mg of 2-NBDLG or 2-NBDG was dissolved in 400 μL of physiological saline directly before the experiment, to prepare a solution having a final concentration of 400 nmol/100 μL.

The test system of data set [4] is acutely dissociated neurons. The data set can be described thus: Confocal imaging of 2-NBDLM+2-TRLG mixture in acutely dissociated neurons of substantia nigra pars reticulata. The class given is cell-based, mouse. The method, then: NaCl 150 mM, KCl 5 mM, MgCl2 1 mM, CaCl2 2 mM, HEPES 10 mM, pH was adjusted to 7.4 by 1M Tris(2-amino-2-hydroxymethyl-1,3-propanediol) solution. The glucose concentration was 10 mM. For the purpose of inhibiting entrance and elimination of fluorescently labeled mannose via a gap junction/hemichannel, 0.1 mM Carbenoxolone (SIGMA #C4790) was added.
NaCl 124 mM, NaHCO3 26 mM, KCl 5 mM, KH2PO4 1.24 mM, CaCl2 2.4 mM, MgSO4.7H2O 1.3 mM, Glucose 10 mM, adjusted to pH7.4 by 95% O2-5% CO2 aeration.
A solution prepared by dissolving 5 mg of poly-L-lysine hydrobromide (SIGMA P6282) in 50 mL of 0.15 M boric acid (adjusted to pH 8.4 with […]) was stocked and refrigerated. This stock solution was diluted at 1/500 to 1/1000 with 0.15 M boric acid, and a cover slip (13 mm×22 mm, Matsunami No. 0 glass) was immersed in the diluted solution and allowed to fix at room temperature for 20 minutes, then, rinsed with distilled water and naturally dried.
Since 2-NBDLM is a stereoisomer of 2-NBDLG and both compounds have the same molecular weight, these compounds were prepared by basically the same method as for preparation of 2-NBDLG liquid and 2-NBDLG+2-TRLG mixture described in the prior publication WO2010/016587 of the present inventors. The concentration of a solution for the administration was as follows. The whole quantity of a 0.5 mg vial was dissolved in 14.6 mL of a HEPES solution for image acquisition to give a 2-NBDLM solution having a final concentration of 100 μM. The dissolving method was carried out similarly to that for preparation of a 2-NBDLG solution in Example 3.
Acutely dissociated neuronal cells were prepared as described below according to the same method as described in the prior publication WO2010/016587 of the present inventors.
Postnatal 13 to 17-day old (juvenile stage) C57BL/6J mice were anesthetized deeply with urethane (i.p. 1.6 g/kg), decapitated according to an ordinary method, then, brain was taken out while pouring a cold Ringer's solution (0° C.) for dissociation, and placed on an ice-cold petri dish and immediately trimmed, then, coronally sectioned brain slices having a thickness of 400 or 500 μm were prepared by a linear slicer (Dosaka Pro7) in a cold Ringer's solution (0° C.). Then, the slice was allowed to restore for 1 hour at room temperature in a chamber (Acrylic incubation chamber manufactured by Harvard Apparatus) containing the above-described Ringer's solution circulating therein through which 95% O2-5% CO2 had been aerated.
The brain slice was immersed in an enzyme solution (31° C.; kept at pH7.4 by aeration with 95% O2-5% CO2) prepared by dissolving a proteolytic enzyme Pronase (10 mg/60 mL) in the above-described Ringer's solution and enzymatically treated. After predetermined period, the enzymatic reaction was stopped by immediately immersing the brain slice in 50-100 mL of a 10 mM glucose-containing HEPES solution at room temperature.
A 60 or 100 mm plastic dish having a silicon plate attached to the bottom was filled with a 10 mM glucose-containing HEPES solution (room temperature, obtained by removing Carbenoxolon from a HEPES solution for confocal image acquisition), and the above-described brain slice was immersed in the solution. Two 27 gauge syringe needles were used to immobilize the brain slice, and left and right mesencephalic substantia nigra pars reticulata were punched out under a microscope with a 18 gauge syringe needle having a tip deformed into an ellipsoidal shape, and preserved at room temperature in the above-described HEPES solution (35 mm culture dish).
Neurons were dissociated by trituration with glass pipettes adjusted to have various point diameters, and allowed to adhere to a glass cover slip coated with poly-L-lysine.
Administration of a mixture was carried out in the same manner as the method of administration to MIN6 cells described in Example 3 (4) to (6).

Where [5] appears, read: 100 μM 2-NBDLM+20 μM 2-TRLG for 5 minutes.

Entries after “also recorded” stand apart in the source; their conditions may differ.

Regarding `O=[N+]([O-])c1ccc(NC2C(O)OC(CF)[C@H](O)C2O)c2nonc12` (stereo partly drawn) [6-F-2-NBDLG, 2,6-Dideoxy-6-fluoro-2-[N-(7-nitrobenz-2-oxa-1,3-diazol-4-yl)amino]-L-glucopyranose], in data set [1], the Maximum excited wavelength is reported as 472 nm and the Maximum fluorescence wavelength is given as 538 nm.
In data set [1], `CN(C)S(=O)(=O)c1ccc(N[C@H](C=O)[C@H](O)[C@@H](O)[C@@H](O)CO)c2nonc12` [2-DBDLG] returned a Maximum fluorescence wavelength of 570 nm.
Consider `O=[N+]([O-])c1ccc(NC2C(O)OC(CO)[C@@H](O)[C@@H]2O)c2nonc12` (stereo partly drawn) [2-NBDG, 2-[N-(7-nitrobenz-2-oxa-1,3-diazole-4-yl)amino]-2-deoxy-D-glucose, reference compound], for which the “effect of GLUT inhibitor Cytochalasin B on uptake into MIN6 cells” value in data set [2] (37° C., Cytochalasin B (10 µM, CB)) is listed as “significant decrease”. In data set [2] (37° C., Na(−) buffer, choline substituted), the “uptake into MIN6 cells in buffer containing Na+ versus no Na+ ion (SGLT)” value is listed as “no significant difference”. Besides, the “effect of Phloretin on uptake into MIN6 cells” value in data set [2] (Phloretin (150 μM, PHT)) was “underwent inhibition of the uptake”. Moreover, in data set [3] (400 nmol i.v., temporal change over 45 minutes, same result in 6 examples), the “fluorescence values at tumor-transplanted part (Tumor) versus normal tissue (BG), FIG. 3” value is listed as “fluorescence values at normal tissue (red square, BG) are larger than at the tumor-transplanted part”. Besides, in data set [3] (400 nmol/100 μL from the tail vein), the “time from which accumulations at the tumor cell-transplanted part were recognized” value is recorded as “around 5 minutes after administration”. Moreover, the “contrast between tumor-transplanted part and normal tissue (adipocyte-rich dorsal part near neck)” value in data set [3] (400 nmol/100 μL from the tail vein, non-fasted mice) is reported as “poor contrast; also recorded: not sufficient”. In addition, the “uptake/accumulation in normal tissue” value in data set [3] (400 nmol/100 μL from the tail vein, normal tissue (fat tissue on the back, between back bones, muscle)) is given as “Intense accumulations”.
With `O=[N+]([O-])c1ccc(NC2C(O)OC(CO)[C@H](O)C2O)c2nonc12` (stereo partly drawn) [2-NBDLM, 2-Deoxy-2-[N-(7-nitrobenz-2-oxa-1,3-diazol-4-yl)amino]-L-mannose], in data set [4] (100 μM 2-NBDLM+20 μM 2-TRLG), the “fluorescence in degraded cells, 10 minutes after cessation of administration” value was “already decreased significantly”; the “fluorescence in healthy neuron, 10 minutes after cessation of administration” value is reported as “preserved in the cell”; the “fluorescence in healthy neuron, 22 minutes after cessation of administration” value is “preserved in the cell”; the “uptake into healthy neuron, 2 minutes after cessation of administration” value is “all cells take up”. Moreover, the “uptake into normal neurons (conclusion)” value in data set [4] (100 μM 2-NBDLM+20 μM 2-TRLG) is listed as “taken up into normal mouse neurons”. Moreover, in data set [4] (setting [5]), the “uptake into degraded cells during administration” value is reported as “completely invading a cell” and the “uptake into healthy neuron during administration” value is on record as “taken up into a cell during administration”. For the same molecule, in data set [1], the Maximum excited wavelength is recorded as 472 nm and the Maximum fluorescence wavelength was determined as 539 nm.
